Assays:
[1] = target: adenosine A2A receptor (Homo sapiens (Human), UniProt P29274); assay: Adenosine receptor activity assay (Table 1), A2A activity; assay type: biochemical; details: read-out: Ave A2A cAMP IC50
[2] = target: adenosine A2B receptor (Homo sapiens (Human), UniProt P29275); assay: Adenosine receptor activity assay (Table 1), A2B activity; assay type: biochemical; details: for Ratio: A2A activity to A2B activity (A2A/A2B); for IC50: read-out: Ave A2B cAMP IC50
[3] = target: adenosine A1 receptor (Homo sapiens (Human), UniProt P30542); assay: Adenosine receptor activity assay (Table 1), A1 cAMP; assay type: cell-based
[4] = target: adenosine A3 receptor (Homo sapiens (Human), UniProt P0DMS8); assay: Adenosine receptor activity assay (Table 1), A3 cAMP; assay type: cell-based
Chain of adenosine A3 receptor (P0DMS8 whole entry): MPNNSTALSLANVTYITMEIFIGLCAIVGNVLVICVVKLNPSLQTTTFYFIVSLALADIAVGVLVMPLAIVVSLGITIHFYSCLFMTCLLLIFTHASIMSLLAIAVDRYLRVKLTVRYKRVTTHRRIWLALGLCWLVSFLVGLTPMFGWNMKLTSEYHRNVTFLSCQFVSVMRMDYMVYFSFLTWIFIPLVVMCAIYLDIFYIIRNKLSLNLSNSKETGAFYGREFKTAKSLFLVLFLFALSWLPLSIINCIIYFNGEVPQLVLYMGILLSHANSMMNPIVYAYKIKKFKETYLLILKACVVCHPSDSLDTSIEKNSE

Chain of adenosine A1 receptor (P30542 whole entry): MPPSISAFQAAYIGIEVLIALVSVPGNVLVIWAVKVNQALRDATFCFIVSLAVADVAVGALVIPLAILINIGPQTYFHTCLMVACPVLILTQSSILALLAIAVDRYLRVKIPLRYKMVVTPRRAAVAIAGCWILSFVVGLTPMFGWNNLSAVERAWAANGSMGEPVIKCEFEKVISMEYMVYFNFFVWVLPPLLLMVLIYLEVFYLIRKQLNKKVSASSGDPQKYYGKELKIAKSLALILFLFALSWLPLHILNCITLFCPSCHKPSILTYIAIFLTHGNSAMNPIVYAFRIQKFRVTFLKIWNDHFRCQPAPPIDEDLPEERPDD
Chain of adenosine A2B receptor (P29275 whole entry): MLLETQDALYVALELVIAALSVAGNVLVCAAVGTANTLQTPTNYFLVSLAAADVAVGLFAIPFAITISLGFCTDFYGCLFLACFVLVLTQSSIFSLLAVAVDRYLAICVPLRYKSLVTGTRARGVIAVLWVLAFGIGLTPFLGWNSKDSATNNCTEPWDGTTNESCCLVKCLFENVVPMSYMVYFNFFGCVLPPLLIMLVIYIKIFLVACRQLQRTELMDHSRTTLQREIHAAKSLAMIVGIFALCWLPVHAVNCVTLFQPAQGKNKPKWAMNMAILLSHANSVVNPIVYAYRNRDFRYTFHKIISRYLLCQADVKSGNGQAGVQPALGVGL
Chain of adenosine A2A receptor (P29274 whole entry): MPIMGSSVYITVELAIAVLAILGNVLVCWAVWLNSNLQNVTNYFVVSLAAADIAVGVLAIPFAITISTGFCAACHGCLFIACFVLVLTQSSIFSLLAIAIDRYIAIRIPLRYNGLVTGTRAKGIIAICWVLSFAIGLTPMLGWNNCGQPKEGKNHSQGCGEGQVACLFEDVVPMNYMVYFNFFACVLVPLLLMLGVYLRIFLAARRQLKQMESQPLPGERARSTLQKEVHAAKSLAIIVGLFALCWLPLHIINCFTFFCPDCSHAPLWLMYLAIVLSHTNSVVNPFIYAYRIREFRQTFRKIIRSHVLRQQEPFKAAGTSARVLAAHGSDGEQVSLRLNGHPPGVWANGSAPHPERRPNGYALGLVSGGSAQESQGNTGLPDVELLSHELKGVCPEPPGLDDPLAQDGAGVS

IC50 [1] | Ratio [2] | IC50 [2] | IC50 [3] | IC50 [4] | Compound
0.1 to 0.5 µM | 58.04 | < 0.01 µM | > 0.5 µM | > 0.5 µM | C[C@H](Nc1nc(C(=O)N2CC[C@@H](F)C2)c2sccc2n1)c1cncc(F)c1 [Example Z234, (2-(((S)-1-(5-Fluoropyridin-3-yl)ethyl)amino)thieno[3,2-d]pyrimidin-4-yl)((R)-3-fluoropyrrolidin-1-yl)methanone]
> 0.5 µM | 57.61 | 0.01 to 0.05 µM | > 0.5 µM | > 0.5 µM | C[C@H](Nc1nc(C(=O)N2CC[C@H](O)C2)c2sccc2n1)c1cncc(Cl)c1 [Example Z236, (2-(((S)-1-(5-Chloropyridin-3-yl)ethyl)amino)thieno[3,2-d]pyrimidin-4-yl)((S)-3-hydroxypyrrolidin-1-yl)methanone]
> 0.5 µM | 65.87 | 0.01 to 0.05 µM | > 0.5 µM | > 0.5 µM | C[C@H](Nc1nc(C(=O)N2CC[C@@H](O)C2)c2sccc2n1)c1cncc(Cl)c1 [Example Z237, (2-(((S)-1-(5-Chloropyridin-3-yl)ethyl)amino)thieno[3,2-d]pyrimidin-4-yl)((R)-3-hydroxypyrrolidin-1-yl)methanone]
0.1 to 0.5 µM | 22.98 | < 0.01 µM | > 0.5 µM | > 0.5 µM | C[C@H](Nc1nc(C(=O)NCC(C)(C)O)c2sccc2n1)c1cncc(F)c1 [Example Z238, (S)-2-((1-(5-Fluoropyridin-3-yl)ethyl)amino)-N-(2-hydroxy-2-methylpropyl)thieno[3,2-d]pyrimidine-4-carboxamide]
0.1 to 0.5 µM | 14.97 | < 0.01 µM | > 0.5 µM | 0.01 to 0.05 µM | CC(C)(C)OC(=O)N[C@@H]1CCN(C(=O)c2nc(NCc3cncc(F)c3)nc3ccsc23)C1 [Example Z239, tert-Butyl (R)-(1-(2-(((5-fluoropyridin-3-yl)methyl)amino)thieno[3,2-d]pyrimidine-4-carbonyl)pyrrolidin-3-yl)carbamate]
> 0.5 µM | 23.69 | 0.01 to 0.05 µM | > 0.5 µM | > 0.5 µM | CNc1cc2nc(N[C@@H](C)c3cccnc3)nc(C(=O)N3CC(O)C3)c2s1 [Example Z240, (S)-(3-Hydroxyazetidin-1-yl)(6-(methylamino)-2-((1-(pyridin-3-yl)ethyl)amino)thieno[3,2-d]pyrimidin-4-yl)methanone]
0.05 to 0.1 µM | 78.77 | < 0.01 µM | > 0.5 µM | > 0.5 µM | C[C@H](Nc1nc(C(=O)N2CCC2)c2sc(N)cc2n1)c1cncc(F)c1 [Example Z241, (S)-(6-Amino-2-((1-(5-fluoropyridin-3-yl)ethyl)amino)thieno[3,2-d]pyrimidin-4-yl)(azetidin-1-yl)methanone]
0.1 to 0.5 µM | 45.21 | < 0.01 µM | > 0.5 µM | > 0.5 µM | C[C@H](Nc1nc(C(=O)N2CC[C@@H](O)C2)c2sc(N)cc2n1)c1cncc(F)c1 [Example Z242, (6-Amino-2-(((S)-1-(5-fluoropyridin-3-yl)ethyl)amino)thieno[3,2-d]pyrimidin-4-yl)((R)-3-hydroxypyrrolidin-1-yl)methanone]
0.1 to 0.5 µM | 112.45 | < 0.01 µM | > 0.5 µM | 0.05 to 0.1 µM | CNc1cc2nc(N[C@@H](C)c3cncc(F)c3)nc(C(=O)N3CC(OC)C3)c2s1 [Example Z243, (S)-(2-((1-(5-Fluoropyridin-3-yl)ethyl)amino)-6-(methylamino)thieno[3,2-d]pyrimidin-4-yl)(3-methoxyazetidin-1-yl)methanone]
0.01 to 0.05 µM | 18.24 | < 0.01 µM | 0.05 to 0.1 µM | 0.05 to 0.1 µM | Cc1cc2nc(N[C@@H](C)c3ccccn3)nc(C(=O)N3CCCC3)c2s1 [Example Z244, (S)-(6-Methyl-2-((1-(pyridin-2-yl)ethyl)amino)thieno[3,2-d]pyrimidin-4-yl)(pyrrolidin-1-yl)methanone]
0.1 to 0.5 µM | 10.26 | 0.01 to 0.05 µM | > 0.5 µM | > 0.5 µM | CO[C@@H]1CCN(C(=O)c2nc(N[C@@H](C)c3cncc(Cl)c3)nc3ccsc23)C1 [Example Z253, (2-(((S)-1-(5-Chloropyridin-3-yl)ethyl)amino)thieno[3,2-d]pyrimidin-4-yl)((R)-3-methoxypyrrolidin-1-yl)methanone]
0.1 to 0.5 µM | 9.38 | 0.01 to 0.05 µM | > 0.5 µM | > 0.5 µM | CO[C@H]1CCN(C(=O)c2nc(N[C@@H](C)c3cncc(Cl)c3)nc3ccsc23)C1 [Example Z254, (2-(((S)-1-(5-Chloropyridin-3-yl)ethyl)amino)thieno[3,2-d]pyrimidin-4-yl)((S)-3-methoxypyrrolidin-1-yl)methanone]
0.01 to 0.05 µM | 1.81 | 0.01 to 0.05 µM | > 0.5 µM | > 0.5 µM | CO[C@H]1CCN(C(=O)c2nc(N[C@@H](C)c3ccccn3)nc3ccsc23)C1 [Example Z255, ((S)-3-Methoxypyrrolidin-1-yl)(2-(((S)-1-(pyridin-2-yl)ethyl)amino)thieno[3,2-d]pyrimidin-4-yl)methanone]
0.1 to 0.5 µM | 31.95 | 0.01 to 0.05 µM | > 0.5 µM | > 0.5 µM | C[C@H](Nc1nc(C(=O)N2CC[C@H](CO)C2)c2sccc2n1)c1cccnc1 [Example Z259, ((S)-3-(Hydroxymethyl)pyrrolidin-1-yl)(2-(((S)-1-(pyridin-3-yl)ethyl)amino)thieno[3,2-d]pyrimidin-4-yl)methanone]
0.1 to 0.5 µM | 16.27 | 0.01 to 0.05 µM | > 0.5 µM | > 0.5 µM | C[C@H](Nc1nc(C(=O)N2CC[C@@H](CO)C2)c2sccc2n1)c1cccnc1 [Example Z260, ((R)-3-(Hydroxymethyl)pyrrolidin-1-yl)(2-(((S)-1-(pyridin-3-yl)ethyl)amino)thieno[3,2-d]pyrimidin-4-yl)methanone]
0.1 to 0.5 µM | 9.48 | 0.01 to 0.05 µM | > 0.5 µM | > 0.5 µM | C[C@H](Nc1nc(C(=O)NCC(F)(F)F)c2sccc2n1)c1cncc(F)c1 [Example Z263, (S)-2-((1-(5-Fluoropyridin-3-yl)ethyl)amino)-N-(2,2,2-trifluoroethyl)thieno[3,2-d]pyrimidine-4-carboxamide]
0.05 to 0.1 µM | 57.63 | < 0.01 µM | 0.05 to 0.1 µM | 0.05 to 0.1 µM | COC1CN(C(=O)c2nc(N[C@@H](C)c3cncc(F)c3)nc3cc(C)sc23)C1 [Example Z268, (S)-(2-((1-(5-Fluoropyridin-3-yl)ethyl)amino)-6-methylthieno[3,2-d]pyrimidin-4-yl)(3-methoxyazetidin-1-yl)methanone]
0.1 to 0.5 µM | 9.24 | 0.01 to 0.05 µM | > 0.5 µM | > 0.5 µM | C[C@H](Nc1nc(C(=O)N2CCC[C@@H]2C)c2sccc2n1)c1cncc(F)c1 [Example Z271, (2-(((S)-1-(5-Fluoropyridin-3-yl)ethyl)amino)thieno[3,2-d]pyrimidin-4-yl)((S)-2-methylpyrrolidin-1-yl)methanone]
0.1 to 0.5 µM | 9.34 | 0.01 to 0.05 µM | > 0.5 µM | > 0.5 µM | C[C@H](Nc1nc(C(=O)N2CCC[C@H]2C)c2sccc2n1)c1cncc(F)c1 [Example Z272, (2-(((S)-1-(5-Fluoropyridin-3-yl)ethyl)amino)thieno[3,2-d]pyrimidin-4-yl)((R)-2-methylpyrrolidin-1-yl)methanone]
0.1 to 0.5 µM | 24.38 | < 0.01 µM | > 0.5 µM | > 0.5 µM | C[C@H](Nc1nc(C(=O)NCCO)c2sccc2n1)c1cncc(F)c1 [Example Z275, (S)-2-((1-(5-Fluoropyridin-3-yl)ethyl)amino)-N-(2-hydroxyethyl)thieno[3,2-d]pyrimidine-4-carboxamide]
0.05 to 0.1 µM | 92.47 | < 0.01 µM | 0.05 to 0.1 µM | 0.05 to 0.1 µM | Cc1cc2nc(N[C@@H](C)c3cncc(F)c3)nc(C(=O)N3CCC3)c2s1 [Example Z276, (S)-Azetidin-1-yl(2-((1-(5-fluoropyridin-3-yl)ethyl)amino)-6-methylthieno[3,2-d]pyrimidin-4-yl)methanone]
0.05 to 0.1 µM | 86.81 | < 0.01 µM | 0.05 to 0.1 µM | 0.05 to 0.1 µM | Cc1cc2nc(N[C@@H](C)c3cncc(F)c3)nc(C(=O)N3CCCC3)c2s1 [Example Z279, (S)-(2-((1-(5-Fluoropyridin-3-yl)ethyl)amino)-6-methylthieno[3,2-d]pyrimidin-4-yl)(pyrrolidin-1-yl)methanone]
0.01 to 0.05 µM | 24.55 | < 0.01 µM | 0.01 to 0.05 µM | 0.05 to 0.1 µM | Cc1cc2nc(N[C@@H](C)c3cncc(F)c3)nc(C(=O)NCC(F)(F)F)c2s1 [Example Z280, (S)-2-((1-(5-Fluoropyridin-3-yl)ethyl)amino)-6-methyl-N-(2,2,2-trifluoroethyl)thieno[3,2-d]pyrimidine-4-carboxamide]
0.05 to 0.1 µM | 56.67 | < 0.01 µM | 0.05 to 0.1 µM | 0.05 to 0.1 µM | Cc1cc2nc(N[C@@H](C)c3ccccn3)nc(C(=O)N3CCC3)c2s1 [Example Z284, (S)-Azetidin-1-yl(6-methyl-2-((1-(pyridin-2-yl)ethyl)amino)thieno[3,2-d]pyrimidin-4-yl)methanone]

Source: patent publication US11254686B1 (Corvus Pharmaceuticals, Inc., priority 2017, dated 2022)
